Test results: patent US20260232876A1, “POROUS METAL STRUCTURES INCORPORATING NANOPARTICLES” (Yissum Research Development Company of the Hebrew …, priority 2023, published 2026)

Experiment: Thymol retention on porous titanium in open air, remaining thymol by HPLC
Assay type: physicochemical
Conditions: 360 h

Cc1ccc(C(C)C)c(O)c1 [free thymol, thymol]
amount of thymol remaining in the samples: almost no thymol left
